These results are taken from patent US12208088B2 (Genentech, Inc., priority 2018, dated 2025).

The target in this assay is HPK1 (Homo sapiens (Human), UniProt Q92918). The assay is described as follows: HPK1 Lantha binding assay ("Lanth"). The note with it: binding assays; Morrison Ki fit. The essentials:
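Ki values are from Morrison-equation fitting of 665/615 nm TR-FRET signals, taking enzyme level, tracer level and tracer Kd into account. The assay mix held HPK1 (2 nM), Eu-anti-GST antibody (2 nM) and Tracer222 (15 nM). Incubations were two 1 h steps at 23 °C, on 5-fold serial compound dilutions.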

Sequence of HPK1 (Q92918 1-346 limits assumed): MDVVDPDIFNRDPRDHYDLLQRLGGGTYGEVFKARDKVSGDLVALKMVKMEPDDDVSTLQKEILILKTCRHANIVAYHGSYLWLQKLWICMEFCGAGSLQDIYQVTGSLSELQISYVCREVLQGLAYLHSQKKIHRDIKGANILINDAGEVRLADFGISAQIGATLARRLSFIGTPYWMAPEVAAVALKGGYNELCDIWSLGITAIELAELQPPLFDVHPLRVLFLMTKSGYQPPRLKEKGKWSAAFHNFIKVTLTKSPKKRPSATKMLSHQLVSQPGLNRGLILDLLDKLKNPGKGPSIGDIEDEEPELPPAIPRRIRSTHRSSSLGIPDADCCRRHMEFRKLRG

With `O=C1CCCCN1c1cccc2c(-c3cnc4c(c3Cl)[C@]3(CC[C@H](O)C3)CN4)c[nH]c12` (single isomer, unassigned) [Compound 300a], the inhibition constant Ki – broadly, the dissociation constant of the complex between target and ligand, obtained from inhibition or displacement – was 27 nM. The compound `O=C1CCCCN1c1cccc2c(-c3cnc4c(c3Cl)[C@@]3(CC[C@@H](O)C3)CN4)c[nH]c12` (single isomer, unassigned) [Compound 300b] gave a Ki of 270 nM. Next, `CO[C@@H]1C[C@@]2(CNc3ncc(-c4ccc(N)c(C(=O)N(C)C)c4F)c(Cl)c32)C[C@H]1O` (stereo in doubt) [Compound 140a, 6-Amino-3-((1R,3S,4S)-4′-chloro-3-hydroxy-4-methoxy-1′,2′-dihydrospiro[cyclopentane-1,3′-pyrrolo[2,3-b]pyridin]-5′-yl)-2-fluoro-N,N-dimethylbenzamide]: 339 nM; `CO[C@H]1C[C@]2(CNc3ncc(-c4ccc(N)c(C(=O)N(C)C)c4F)c(Cl)c32)C[C@@H]1O` (stereo in doubt) [Compound 140b, 6-Amino-3-((1S,3R,4R)-4′-chloro-3-hydroxy-4-methoxy-1′,2′-dihydrospiro[cyclopentane-1,3′-pyrrolo[2,3-b]pyridin]-5′-yl)-2-fluoro-N,N-dimethylbenzamide]: 62.5 nM; `CN(C)C(=O)c1c(N)ccc(-c2cnc3c(c2Cl)[C@]2(CN3)CC(O)C(n3ccnn3)C2)c1F` (stereo in doubt) [Compound 146a, 6-Amino-3-((1R,3S,4S)-4′-chloro-3-hydroxy-4-(1H-1,2,3-triazol-1-yl)-1′,2′-dihydrospiro[cyclopentane-1,3′-pyrrolo[2,3-b]pyridin]-5′-yl)-2-fluoro-N,N-dimethylbenzamide]: 494 nM. With `CN(C)C(=O)c1cc(-c2cnc3c(c2)C2(CCCC2)CN3)ccc1N` [Compound 1, 2-Amino-5-(1′,2′-dihydrospiro[cyclopentane-1,3′-pyrrolo[2,3-b]pyridin]-5′-yl)-N,N-dimethylbenzamide], the inhibition constant (Ki) amounted to 28.8 nM. `CN(C)C(=O)c1cc(-c2cnc3c(c2)C2(CC2)CN3)ccc1N` [Compound 2, 2-Amino-5-(1′,2′-dihydrospiro[cyclopropane-1,3′-pyrrolo[2,3-b]pyridin]-5′-yl)-N,N-dimethylbenzamide] registered a Ki of 35.6 nM. Next, `O=C1COCCN1c1cccc(-c2cnc3c(c2)C2(CC2)CN3)c1` [Compound 3, 4-(3-(1′,2′-Dihydrospiro[cyclopropane-1,3′-pyrrolo[2,3-b]pyridin]-5′-yl)phenyl)morpholin-3-one]: 40.3 nM; `CN(C)C(=O)c1cc(-c2cnc3c(c2)C2(CCC2)CN3)ccc1N` [Compound 4, 2-Amino-5-(1′,2′-dihydrospiro[cyclobutane-1,3′-pyrrolo[2,3-b]pyridin]-5′-yl)-N,N-dimethylbenzamide]: 71.7 nM.

For the compound `O=C1COCCN1c1cccc(-c2cnc3c(c2)C2(CCC2)CN3)c1` [Compound 5, 4-(3-(1′,2′-Dihydrospiro[cyclobutane-1,3′-pyrrolo[2,3-b]pyridin]-5′-yl)phenyl)morpholin-3-one], the Ki was 98.7 nM. Under `CN(C)C(=O)c1c(N)ccc(-c2cnc3c(c2)C2(CC2)CN3)c1F` [Compound 6, 6-Amino-3-(1′,2′-dihydrospiro[cyclopropane-1,3′-pyrrolo[2,3-b]pyridin]-5′-yl)-2-fluoro-N,N-dimethylbenzamide] stands 22.7 nM; under `CN(CCO)C(=O)c1c(N)ccc(-c2cnc3c(c2)C2(CC2)CN3)c1F` [Compound 7, 6-amino-3-(1′,2′-dihydrospiro[cyclopropane-1,3′-pyrrolo[2,3-b]pyridin]-5′-yl)-2-fluoro-N-(2-hydroxyethyl)-N-methylbenzamide], 21.6 nM; under `CN(C)C(=O)c1c(N)ccc(-c2cnc3c(c2Cl)C2(CC2)CN3)c1F` [Compound 8, 6-Amino-3-(4′-chloro-1′,2′-dihydrospiro[cyclopropane-1,3′-pyrrolo[2,3-b]pyridin]-5′-yl)-2-fluoro-N,N-dimethylbenzamide], 7.71 nM.
